Data as given in ChEMBL document CHEMBL1149662, “Design and synthesis of a library of tertiary amides: evaluation as mimetics of the melanocortins' active core” (Bioorg Med Chem, 2007).
pKi: −log10 of the molar value.

How the values were obtained:
[1] = target: Melanocyte-stimulating hormone receptor (Mus musculus, UniProt Q01727); experiment: Displacement of [125I]NDP-MSH from MC1 receptor in mouse B16 cells; assay type: cell-based
[2] = target: Melanocortin receptor 4 (Homo sapiens, UniProt P32245); experiment: Displacement of [125I]NDP-MSH from human recombinant MC4 receptor expressed in Sf9 cells
Chain of Melanocortin receptor 4 (P32245 whole entry): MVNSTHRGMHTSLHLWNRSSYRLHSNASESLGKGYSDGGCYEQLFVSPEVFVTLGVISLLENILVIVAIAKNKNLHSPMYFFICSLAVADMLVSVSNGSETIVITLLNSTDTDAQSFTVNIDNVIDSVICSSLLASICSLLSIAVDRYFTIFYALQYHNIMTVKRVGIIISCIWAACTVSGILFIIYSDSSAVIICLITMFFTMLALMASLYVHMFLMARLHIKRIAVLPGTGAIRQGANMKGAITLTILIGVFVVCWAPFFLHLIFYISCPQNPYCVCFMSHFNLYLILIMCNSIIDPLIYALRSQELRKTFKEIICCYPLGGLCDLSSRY

[3] = target: Melanocortin receptor 5 (Homo sapiens, UniProt P33032); experiment: Displacement of [125I]NDP-MSH from human recombinant MC5 receptor expressed in Sf9 cells
Chain of Melanocortin receptor 5 (P33032 whole entry): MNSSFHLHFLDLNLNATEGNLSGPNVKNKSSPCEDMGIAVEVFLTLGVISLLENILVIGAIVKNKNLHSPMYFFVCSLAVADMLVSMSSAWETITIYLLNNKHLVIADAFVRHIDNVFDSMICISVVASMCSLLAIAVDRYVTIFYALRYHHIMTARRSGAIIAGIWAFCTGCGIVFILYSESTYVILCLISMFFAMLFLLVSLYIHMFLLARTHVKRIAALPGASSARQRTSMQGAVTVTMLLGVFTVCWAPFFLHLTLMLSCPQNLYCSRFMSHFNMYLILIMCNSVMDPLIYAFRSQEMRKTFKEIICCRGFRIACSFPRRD

[4] = target: Melanocortin receptor 3 (Homo sapiens, UniProt P41968); experiment: Displacement of [125I]NDP-MSH from human recombinant MC3 receptor expressed in Sf9 cells
Chain of Melanocortin receptor 3 (P41968 whole entry): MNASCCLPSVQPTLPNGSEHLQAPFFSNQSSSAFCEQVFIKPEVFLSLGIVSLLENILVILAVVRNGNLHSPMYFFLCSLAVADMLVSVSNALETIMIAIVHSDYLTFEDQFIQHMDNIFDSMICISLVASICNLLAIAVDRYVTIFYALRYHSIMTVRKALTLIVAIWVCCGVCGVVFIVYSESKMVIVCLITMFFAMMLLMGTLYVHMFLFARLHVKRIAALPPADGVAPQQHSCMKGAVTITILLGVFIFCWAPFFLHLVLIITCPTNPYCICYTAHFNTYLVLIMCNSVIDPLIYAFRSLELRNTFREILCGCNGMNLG

Chain of Melanocyte-stimulating hormone receptor (Q01727 whole entry): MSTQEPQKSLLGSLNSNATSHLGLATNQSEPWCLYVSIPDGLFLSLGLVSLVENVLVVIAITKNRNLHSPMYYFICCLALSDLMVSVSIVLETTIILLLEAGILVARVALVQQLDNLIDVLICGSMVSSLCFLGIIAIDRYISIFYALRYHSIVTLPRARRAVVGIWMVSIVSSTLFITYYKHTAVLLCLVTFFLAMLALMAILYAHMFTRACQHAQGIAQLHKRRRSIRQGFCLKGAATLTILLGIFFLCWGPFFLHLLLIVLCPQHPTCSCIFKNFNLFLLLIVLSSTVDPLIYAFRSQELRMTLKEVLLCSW

Row | Structure (SMILES) | pKi [1] | pKi [2] | pKi [3] | pKi [4]
1 | CSc1ccc(CN(C(=O)CCCc2c(Cc3ccc(O)cc3)[nH]c3ccccc23)C2CCC(CC3CCC(N)CC3)CC2)cc1 (stereo not given) | 4.77 | 5.35 | 5.05 | 3.70
2 | NCCCCCN(Cc1ccccc1)C(=O)[C@H](N)Cc1ccc([N+](=O)[O-])cc1 | 4.43 | 4.02 | 3.99 | 3.79
3 | NCCCCCCCN(C/C(Cl)=C/c1ccccc1)C(=O)CCCc1c[nH]c2ccccc12 | 5.30 | 5.13 | 4.54 | 4.38
4 | CCC(c1ccccc1)N(CCCCN)C(=O)CCc1c[nH]c2ccccc12 (stereo not given) | 4.82 | 3.80 | 4.89 | 4.42
5 | Cc1ccccc1CN(C(=O)CCCc1c[nH]c2ccccc12)C1CCC(CC2CCC(N)CC2)CC1 (stereo not given) | 5.92 | 5.64 | 4.82 | 3.92
6 | NC1CCCC(NC(=O)NC2CCCC(N(C/C(Cl)=C/c3ccccc3)C(=O)CCCc3c[nH]c4ccccc34)C2)C1 (stereo not given) | 5.51 | 4.74 | 4.80 | 4.35
7 | NCCCCN(Cc1ccc2ccccc2c1)C(=O)c1c[nH]c2ccccc12 | 5.77 | 5.19 | 4.74 | 4.72
8 | NCC1CCCC(CN(Cc2ccccc2)C(=O)CCCc2c[nH]c3ccccc23)C1 (stereo not given) | 5.57 | 5.44 | 5.06 | 4.62
9 | CC1CC(CC2CCC(N(Cc3ccccc3)C(=O)CCCc3c[nH]c4ccccc34)C(C)C2)CCC1N (stereo in doubt; form 5) | 5.89 | 5.68 | 5.30 | 4.51
10 | CCOc1cc(CN(C(=O)CCCc2c(Cc3ccc(O)cc3)[nH]c3ccccc23)C2CCC(CC3CCC(N)CC3)CC2)ccc1OC (stereo not given) | 5.68 | 5.68 | 4.92 | 4.59
11 | N#Cc1ccc(CN(C(=O)CCCc2c[nH]c3ccccc23)C2CCC(CC3CCC(N)CC3)CC2)cc1 (stereo in doubt; form 1) | 5.80 | 5.70 | 5.19 | 4.92
12 | NCCCCCN(Cc1ccccc1)C(=O)[C@H](N)Cc1c[nH]c2ccccc12 | 4.49 | 4.06 | 3.80 | 3.97
13 | COc1cc(Cl)c(CN(C(=O)CCCc2c[nH]c3ccccc23)C2CCC(CC3CCC(N)CC3)CC2)cc1OC (stereo in doubt; form 2) | 5.72 | 5.82 | 5.05 | 4.60
14 | CC1CC(CC2CCC(N(C/C(Cl)=C/c3ccccc3)C(=O)CCCc3c[nH]c4ccccc34)C(C)C2)CCC1N (stereo in doubt; form 2) | 5.66 | 5.51 | 5.32 | 4.89
15 | NC1CCC(CC2CCC(N(C/C(Cl)=C/c3ccccc3)C(=O)CCCc3c[nH]c4ccccc34)CC2)CC1 (stereo in doubt; form 1) | 6.29 | 5.39 | 4.33 | 5.15
16 | NCCCN1CCN(CCCN(Cc2ccccc2)C(=O)CCCc2c[nH]c3ccccc23)CC1 | 5.19 | 4.80 | 4.66 | 4.28
17 | NC1CCC(CC2CCC(N(Cc3ccccn3)C(=O)CCCc3c[nH]c4ccccc34)CC2)CC1 (stereo not given) | 5.34 | 5.25 | 4.31 | 4.41
18 | CSc1ccc(CN(C(=O)CCCc2c[nH]c3ccccc23)C2CCC(CC3CCC(N)CC3)CC2)cc1 (stereo not given) | 5.49 | 5.37 | 4.07 | 3.60
19 | NCCCCCCN(C/C(Cl)=C/c1ccccc1)C(=O)CCCc1c[nH]c2ccccc12 | 5.62 | 5.42 | 4.68 | 4.59
20 | Cc1ccccc1CN(C(=O)CCCc1c(Cc2ccc(O)cc2)[nH]c2ccccc12)C1CCC(CC2CCC(N)CC2)CC1 (stereo not given) | 5.33 | 5.39 | 5.36 | 3.46
21 | NCCCCCN(Cc1ccccc1)C(=O)[C@H](N)Cc1ccc(-c2ccccc2)cc1 | 5.41 | 4.85 | 4.70 | 4.74
22 | NCCCN(C/C=C/c1ccccc1)C(=O)Cc1ccc2ccccc2c1 | 5.60 | 5.19 | 5.00 | 4.48
23 | NCCCN(C(=O)c1cc2cc(OCc3ccccc3)ccc2[nH]1)C1CCc2ccccc2C1 (stereo not given) | 4.59 | 4.68 | 3.17 | 3.27
24 | N#Cc1ccc(CN(C(=O)CCCc2c(Cc3ccc(O)cc3)[nH]c3ccccc23)C2CCC(CC3CCC(N)CC3)CC2)cc1 (stereo not given) | 5.85 | 5.62 | 4.68 | 4.60
25 | CC1CC(CC2CCC(N(C/C(Cl)=C/c3ccccc3)C(=O)CCCc3c[nH]c4ccccc34)C(C)C2)CCC1N (stereo in doubt; form 1) | 5.25 | 5.11 | 5.04 | 4.19
